Laboratory results as given in patent US20030017590A1, “PRODUCTION OF HUMAN CNS NEURONS FROM EMBRYONAL CARCINOMA CELLS USING CELL AGGREGATION METHOD” (priority 1999, published 2003).
Entries after “also recorded” stand apart in the source; their conditions may differ.

Assays:
NT2 cells [1] = assay: RA-induced neuronal differentiation of NT2 cell aggregates (phase contrast morphology); type: cell-based, human; details: for number of neurons that could be prepared: NT2 aggregates
Method: NT2 cells were cultured as previously described (Pleasure, S. J. et al., 1992, J. Neurosci. 12:1802-1815). Briefly, cells were maintained in OptiMEMI-reduced serum medium (GIBCO, Palo Alto, Calif., USA) supplemented with 5% fetal bovine serum (FBS; GIBCO, Palo Alto, Calif., USA). When NT2 cells were differentiated by the standard protocol, NT2 cells were seeded at 2×10^6 cells per 75 cm^2 in Dulbecco's Modified Eagle's medium (high glucose formulation) (DMEM-HG; GIBCO, Palo Alto, Calif., USA) and were treated with a final concentration of 10 μM all-trans RA (SIGMA, St. Louis, Mo., USA). In the cell aggregation studies, cells were dislodged by trypsinization and were plated at 1×10^5 cells per ml into a 85-mm bacteriological grade petri dish in DMEM-HG supplemented 10% FBS. After incubation overnight at 37° C. in a 5% CO2 incubator, the aggregates were supplemented with a final concentration of 10 μM all-trans RA. The medium was replaced every two days. After 14 days of RA treatment, aggregates were plated onto tissue culture grade petri dish pre-coated with 10 μg/ml poly-D-lysine (PDL; SIGMA, St. Louis, Mo., USA), 10 μg/ml mouse laminin (LAM; GIBCO, Palo Alto, Calif., USA) and 0.1% gelatin (SIGMA, St. Louis, Mo., USA) in Dulbecco's Phosphate buffered saline (D-PBS; GIBCO, Palo Alto, Calif., USA). Following overnight incubation, aggregates were then cultured in DMEM-HG with 10% FBS supplemented with 1 μM cytosine D-arabinofuranoside (arac; SIGMA, St. Louis, Mo., USA) and 10 μM uridine (SIGMA, St. Louis, Mo., USA). After 3 days of incubation, neurons were detached by tapping gently on the side of the tissue culture plate, or by brief trypsinization, and replated on to a new pre-coated tissue culture plate. Incubation was continued in the presence of araC and uridine for another 4 days. Neurons obtained could be kept in DMEM supplemented with 10% FBS for more than 3 weeks.
To examine the effect of cell aggregation on RA-induced neuronal differentiation, NT2 cells were pre-aggregated as described above. After 14 days of RA treatment, aggregates were plated on PDL and LAM (PDL/LAM) coated plates. […] Phase bright neuron-like cells with long extended neurites continued to migrate out from the NT2 aggregates. At day 3 after replating, these cells grew on the surface of large-flattened cells (FIG. 1). […] However, neuron-like cells were subsequently overwhelmed by both undifferentiated NT2 cells and the differentiated large-flattened cells (Pleasure, S. J. et al., 1992, J. Neurosci. 12:1802-1815).
It is possible that the sustained requirement of RA for the neuronal differentiation of NT2 is indeed due to the lack of cell-cell interaction. To examine this possibility, NT2 cells were maintained as aggregates in bacteriological culture dish for 14 days and RA treatment was given only during the first few days of aggregation (1 to 5 days).

NT2 aggregates = assay: Western blot of neuronal markers in RA-differentiated NT2 aggregates; type: cell-based, human
Method: (§1) FIG. 5. Expression of neuronal markers in RA differentiated NT2 aggregates. NT2 cells were pre-aggregated by RA at concentration (10^−7 to 10^−5 M) for 14 days and replated onto PDL/LAM coated plates for two days. As control experiments, NT2 cells were plated at 2×10^5 cells/ml as monolayer cultures and differentiated with RA (10^−7 to 10^−5 M) for a total of 16 days. Total proteins were extracted and Western blot analysis was performed using antibodies specific against phosphorylated NF-M (NF-M-P; upper panel) and synapsin I (lower panel).
(§2) Cells were washed twice with ice-cold PBS followed by a wash with ice-cold PBS supplemented with 1 mM sodium orthovanadate (NaOV; SIGMA, St. Louis, Mo., USA). Cells were then lysed with lysis buffer (50 mM Tris.Cl at pH8, 150 mM NaCl, 1% TX, 1×aprotinin; SIGMA, St. Louis, Mo., USA, 1 mM PMSF; GIBCO, Palo Alto, Calif., USA and 1 mM NaOV) at 4° C. for 15 minutes. Lysates were collected and centrifuged to remove cell debris. Protein assays were performed with Bio-Rad Protein Assay Kit based on the Bradford dye-binding procedure (BIO-RAD, Hercules, Calif., USA). Protein (typically 10 μg) were separated by SDS-PAGE and then electro-transferred to nitrocellulose membrane (MSI, Westborough, Mass., USA). After blocking at room temperature for 1 hr using TBS-Tween containing 5% non-fat milk, membranes were incubated overnight at 4° C. with primary antibodies in TBS-Tween containing 5% non-fat milk. Membranes were then incubated with horseradish peroxidase conjugated secondary antibodies (1:2000 dilution; AMERSHAM, Arlington Heights, Ill., USA) for 1 hour at room temperature. After three washes with TBS-Tween, immunoreactive bands were detected using ECL kit (AMERSHAM, Arlington Heights, Ill., USA).
To study whether the high concentrations of RA required for inducing neuronal differentiation of NT2 cells could be lowered under the condition of cell aggregation, we exposed the NT2 aggregates to reduced concentration of RA (0.1 to 10 μM). Following treatment of NT2 aggregates with RA for 14 days, these cells were plated onto PDL/LAM coated plates in RA-free medium, and total protein samples were prepared 2 days later. As control, total protein samples were extracted from monolayer NT2 cultures treated with 16 days of RA (0.1 to 10 μM).

monolayer NT2 cells = assay: Western blot of neuronal markers in RA-treated monolayer NT2 cultures; type: cell-based, human; details: RA 0.1 to 10 μM for 16 days
Method: as §1
as §2, with “Mass., USA). […] After three” for “Mass., USA). After blocking at room temperature for 1 hr using TBS-Tween containing 5% non-fat milk, membranes were incubated overnight at 4° C. with primary antibodies in TBS-Tween containing 5% non-fat milk. Membranes were then incubated with horseradish peroxidase conjugated secondary antibodies (1:2000 dilution; AMERSHAM, Arlington Heights, Ill., USA) for 1 hour at room temperature. After three”, “Ill., USA). […]” for “Ill., USA).”

NT2 cells [2] = assay: Indirect immunofluorescent analysis of NT2 neurons differentiated by cell aggregation; type: cell-based, human; details: RA 5 μM for 14 days, two days after replating in RA-free medium
Method: NT2 cells were aggregated and differentiated by RA (5 μM) for 14 days. Two days after replating in RA-free medium, differentiated NT2 cells were fixed and stained with the antibodies specific against TH (upper panel), and phosphorylated NF-M (lower panel). Scale bar, 50 μm.
For immunofluorescent analysis, control or differentiated aggregates cultures were fixed with 4% paraformaldehyde (FLUKA, Hauppauge, N.Y., USA) in PBS. After blocking with 4% normal serum (NS; VECTOR LAB, Burlingame, Calif., USA) in PBS containing 0.4% Triton-X (TX; BOERINGER MANNEHEIM, Mannheim, Germany), and 1% bovine serum albumin (BSA; SIGMA, St. Louis, Mo., USA), aggregates were incubated overnight at 4° C. with primary antibodies diluted in antibody diluent (1% NS, 0.4% TX and 1% BSA). Incubation with secondary antibodies was performed at room temperature for at least 2 hours. Cells were visualized under fluorescence microscope (ZEISS, Jena, Germany). […]
In order to verify whether the phase-bright cells obtained following cell aggregation were neurons, immunocytochemical analysis was performed. High-molecular weight neurofilament proteins (200 kDa) were detected in the neurites of the neurons (FIG. 2). […] In addition, substance P (SP) was detected in both the cell bodies and the neurites of the neurons (FIG. 2). […]

NT2 cells [3] = details: standard protocol for differentiation; cited from earlier work
[4] = NT2 aggregates, RA 0.1 to 10 μM

CC1=C(/C=C/C(C)=C/C=C/C(C)=C/C(=O)O)C(C)(C)CCC1 [RA, all-trans retinoic acid]
formation of neurons after brief RA treatment (NT2 cells [1]; 2 to 3 days of RA treatment (10 μM), cells maintained as aggregates for 14 days): Neurons were observed | neurite outgrowth from NT2 aggregates (NT2 cells [1]; 14 days of RA treatment (10 μM), plated on PDL/LAM, overnight incubation without RA): Neurite outgrowth was initiated | number of neurons that could be prepared (NT2 cells [1]; 0.1 μM RA): almost no neurons were observed; also recorded: did not result in cells that resembled neurons | number of neurons that could be prepared (NT2 cells [1]; 1 μM RA): only a few neurons could be observed | time to formation of neurons (NT2 cells [1]; NT2 cells treated with RA as aggregates in bacteriological plates): ≤ 16 days | extension of neurites from NT2 cells (NT2 cells [1]; RA for only 12 days, 2 days after plating on PDL/LAM): extension of neurites from NT2 cells was observed | neuritic outgrowth of RA-treated aggregates (NT2 cells [1]; cell aggregation period less than 12 days): did not result in observable neuritic outgrowth | expression level of phosphorylated NF-M proteins, aggregates versus monolayer (NT2 aggregates; NT2 aggregates at 0.1 μM RA versus monolayer NT2 cells at 10 μM RA): comparable expression level | expression level of phosphorylated NF-M proteins versus RA concentration (NT2 aggregates; [4]): elevated with increased concentration of RA | synapsin I protein expression (NT2 aggregates; [4]): High level of synapsin I protein expression was detected | expression of phosphorylated NF-M proteins (NT2 aggregates; NT2 aggregates, RA 0.1 to 10 μM for 14 days, 2 days on PDL/LAM): could induce the expression of phosphorylated NF-M proteins | expression of phosphorylated NF-M (monolayer NT2 cells): expressed phosphorylated NF-M only at higher concentrations of RA (1 or 10 μM) | expression of neuronal specific proteins (NF200, synapsin I, substance P, GABA) (NT2 cells [2]): expressed neuronal specific proteins | expression of tyrosine hydroxylase (TH) (NT2 cells [2]): expressed tyrosine hydroxylase (TH) | time until neuron-like cells observed after RA treatment (NT2 cells [3]): about five weeks
